US9980943B2, “Methods of treating muscular dystrophy” (BOARD OF REGENTS OF THE NEVADA SYSTEM OF HIGHER EDUCATION, …, priority 2013, dated 2018)

Tests used:
Type in all cases: cell-based, mouse
[1] = system: α7 integrin (LacZ reporter in α7βgal+/− myoblasts); test: Myoblast α7+/LacZ integrin FDG assay (Burkin assay in myoblasts, 96-well); conditions: α7+/LacZ myoblasts, 96-well
[2] = system: β-galactosidase in CMV-LacZ C2C12 myotubes; test: CMV-LacZ secondary screen in C2C12 myotubes (β-Gal stabilizing assay); conditions: C2C12 CMV-LacZ myotubes, fold relative to DMSO
How it was run: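 CMV-LacZ C2C12 line (clonal, FDG-screened); myoblasts/myotubes dosed 0.5–40 μM (0.5, 1, 5, 10, 20, 40 μM); n=2 per point; β-gal stabilization read-out.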

[3] = system: α7 integrin (LacZ reporter in α7+/LacZ myotubes); test: Myotube α7 integrin FDG assay (Burkin assay in myotubes, 96-well); conditions: myotubes
[4] = system: β-galactosidase in CMV-LacZ C2C12 myoblasts; test: CMV-LacZ secondary screen in C2C12 myoblasts (β-Gal stabilizing assay); conditions: CMV-LacZ C2C12 myoblasts
How it was run: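 A secondary screen identifies compounds that stabilize β-gal independently of the native promoter, using CMV-LacZ C2C12 cells. Curves span 0.5–40 μM at six levels, in duplicate.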

Question: For `O=C(COc1ccc(Cl)cc1)N1CCN(C2CCCC2)CC1.O=C(O)C(=O)O` [MLS001221318-01], which “Burkin Assay in Myoblasts, signal relative to DMSO” value ([1]; 0.5 uM) is on record?
Answer: 1.118

Question: What about the “Burkin Assay in Myoblasts, signal relative to DMSO” value ([1]; 1 uM) of the same molecule?
Answer: 1.283

Question: And the “Burkin Assay in Myoblasts, signal relative to DMSO” value ([1]; 5 uM)?
Answer: 1.01

Question: What about the “Burkin Assay in Myoblasts, signal relative to DMSO” value ([1]; 10 uM) of the same molecule?
Answer: 0.9944

Question: And the “Burkin Assay in Myoblasts, signal relative to DMSO” value ([1]; 20 uM)?
Answer: 1.054

Question: What about the “Burkin Assay in Myoblasts, signal relative to DMSO” value ([1]; 40 uM) of the same molecule?
Answer: 1.075

Question: And the “CMV-LACZ in Myotubes, signal relative to DMSO” value ([2]; 0.5 uM)?
Answer: 1.0037

Question: And the “CMV-LACZ in Myotubes, signal relative to DMSO” value ([2]; 1 uM)?
Answer: 1.4059

Question: And the “CMV-LACZ in Myotubes, signal relative to DMSO” value ([2]; 5 uM)?
Answer: 1.1337

Question: And the “CMV-LACZ in Myotubes, signal relative to DMSO” value ([2]; 10 uM)?
Answer: 0.9944

Question: And the “CMV-LACZ in Myotubes, signal relative to DMSO” value ([2]; 20 uM)?
Answer: 1.2212

Question: And the “CMV-LACZ in Myotubes, signal relative to DMSO” value ([2]; 40 uM)?
Answer: 0.8576

Question: What about the “Burkin Assay in Myotubes, α7 integrin LacZ reporter signal relative to DMSO” value ([3]; 0.5 uM) of the same molecule?
Answer: 1.133

Question: What about the “Burkin Assay in Myotubes, α7 integrin LacZ reporter signal relative to DMSO” value ([3]; 1 uM) of the same molecule?
Answer: 1.082

Question: What about the “Burkin Assay in Myotubes, α7 integrin LacZ reporter signal relative to DMSO” value ([3]; 5 uM) of the same molecule?
Answer: 0.9266

Question: What about the “Burkin Assay in Myotubes, α7 integrin LacZ reporter signal relative to DMSO” value ([3]; 10 uM) of the same molecule?
Answer: 0.9591

Question: And the “Burkin Assay in Myotubes, α7 integrin LacZ reporter signal relative to DMSO” value ([3]; 20 uM)?
Answer: 0.8071

Question: What about the “Burkin Assay in Myotubes, α7 integrin LacZ reporter signal relative to DMSO” value ([3]; 40 uM) of the same molecule?
Answer: 0.7186

Question: And the “CMV-LACZ in Myoblasts (β-galactosidase activity relative to DMSO)” value ([4]; 0.5 uM)?
Answer: 0.8528

Question: What about the “CMV-LACZ in Myoblasts (β-galactosidase activity relative to DMSO)” value ([4]; 1 uM) of the same molecule?
Answer: 1.0538

Question: And the “CMV-LACZ in Myoblasts (β-galactosidase activity relative to DMSO)” value ([4]; 5 uM)?
Answer: 1.0999

Question: And the “CMV-LACZ in Myoblasts (β-galactosidase activity relative to DMSO)” value ([4]; 10 uM)?
Answer: 0.9955

Question: What about the “CMV-LACZ in Myoblasts (β-galactosidase activity relative to DMSO)” value ([4]; 20 uM) of the same molecule?
Answer: 1.0181

Question: And the “CMV-LACZ in Myoblasts (β-galactosidase activity relative to DMSO)” value ([4]; 40 uM)?
Answer: 1.5641

Question: What does the source list for `O=C(NCc1ccccc1)C(c1c(F)cccc1Cl)N(C(=O)c1csnn1)C1CC1` (stereo not drawn) [MLS001221908-01]?
Answer: Burkin Assay in Myoblasts, signal relative to DMSO ([1]; 0.5 uM): 1.051; Burkin Assay in Myoblasts, signal relative to DMSO ([1]; 1 uM): 0.9531; Burkin Assay in Myoblasts, signal relative to DMSO ([1]; 5 uM): 0.9306; Burkin Assay in Myoblasts, signal relative to DMSO ([1]; 10 uM): 0.8812; Burkin Assay in Myoblasts, signal relative to DMSO ([1]; 20 uM): 1.433; Burkin Assay in Myoblasts, signal relative to DMSO ([1]; 40 uM): 0.5684; CMV-LACZ in Myotubes, signal relative to DMSO ([2]; 0.5 uM): 0.8562; CMV-LACZ in Myotubes, signal relative to DMSO ([2]; 1 uM): 0.9171; CMV-LACZ in Myotubes, signal relative to DMSO ([2]; 5 uM): 0.9745; CMV-LACZ in Myotubes, signal relative to DMSO ([2]; 10 uM): 1.1838; CMV-LACZ in Myotubes, signal relative to DMSO ([2]; 20 uM): 1.0770; CMV-LACZ in Myotubes, signal relative to DMSO ([2]; 40 uM): 0.8850; Burkin Assay in Myotubes, α7 integrin LacZ reporter signal relative to DMSO ([3]; 0.5 uM): 1.197; Burkin Assay in Myotubes, α7 integrin LacZ reporter signal relative to DMSO ([3]; 1 uM): 0.9589; Burkin Assay in Myotubes, α7 integrin LacZ reporter signal relative to DMSO ([3]; 5 uM): 0.889; Burkin Assay in Myotubes, α7 integrin LacZ reporter signal relative to DMSO ([3]; 10 uM): 0.9693; Burkin Assay in Myotubes, α7 integrin LacZ reporter signal relative to DMSO ([3]; 20 uM): 0.818; Burkin Assay in Myotubes, α7 integrin LacZ reporter signal relative to DMSO ([3]; 40 uM): 0.7406; CMV-LACZ in Myoblasts (β-galactosidase activity relative to DMSO) ([4]; 0.5 uM): 0.9663; CMV-LACZ in Myoblasts (β-galactosidase activity relative to DMSO) ([4]; 1 uM): 0.7607; CMV-LACZ in Myoblasts (β-galactosidase activity relative to DMSO) ([4]; 5 uM): 0.9357; CMV-LACZ in Myoblasts (β-galactosidase activity relative to DMSO) ([4]; 10 uM): 0.7908; CMV-LACZ in Myoblasts (β-galactosidase activity relative to DMSO) ([4]; 20 uM): 0.9726; CMV-LACZ in Myoblasts (β-galactosidase activity relative to DMSO) ([4]; 40 uM): 0.6789

Question: With `O=C(CSc1nnc2c(n1)[nH]c1ccccc12)NCc1ccccc1F` [MLS001225512-01] as the molecule, how does the “Burkin Assay in Myoblasts, signal relative to DMSO” value ([1]; 0.5 uM) read?
Answer: 1.1596

Question: What about the “Burkin Assay in Myoblasts, signal relative to DMSO” value ([1]; 1 uM) of the same molecule?
Answer: 0.9131

Question: What about the “Burkin Assay in Myoblasts, signal relative to DMSO” value ([1]; 5 uM) of the same molecule?
Answer: 1.173

Question: What about the “Burkin Assay in Myoblasts, signal relative to DMSO” value ([1]; 10 uM) of the same molecule?
Answer: 0.8832

Question: What about the “Burkin Assay in Myoblasts, signal relative to DMSO” value ([1]; 20 uM) of the same molecule?
Answer: 1.108

Question: What about the “Burkin Assay in Myoblasts, signal relative to DMSO” value ([1]; 40 uM) of the same molecule?
Answer: 1.284

Question: What about the “CMV-LACZ in Myotubes, signal relative to DMSO” value ([2]; 0.5 uM) of the same molecule?
Answer: 1.0162

Question: And the “CMV-LACZ in Myotubes, signal relative to DMSO” value ([2]; 1 uM)?
Answer: 1.0381

Question: What about the “CMV-LACZ in Myotubes, signal relative to DMSO” value ([2]; 5 uM) of the same molecule?
Answer: 0.9459

Question: What about the “CMV-LACZ in Myotubes, signal relative to DMSO” value ([2]; 10 uM) of the same molecule?
Answer: 1.0077

Question: And the “CMV-LACZ in Myotubes, signal relative to DMSO” value ([2]; 20 uM)?
Answer: 1.2482

Question: And the “CMV-LACZ in Myotubes, signal relative to DMSO” value ([2]; 40 uM)?
Answer: 0.8871

Question: And the “Burkin Assay in Myotubes, α7 integrin LacZ reporter signal relative to DMSO” value ([3]; 0.5 uM)?
Answer: 0.929

Question: And the “Burkin Assay in Myotubes, α7 integrin LacZ reporter signal relative to DMSO” value ([3]; 1 uM)?
Answer: 1.059

Question: What about the “Burkin Assay in Myotubes, α7 integrin LacZ reporter signal relative to DMSO” value ([3]; 5 uM) of the same molecule?
Answer: 0.9799

Question: And the “Burkin Assay in Myotubes, α7 integrin LacZ reporter signal relative to DMSO” value ([3]; 10 uM)?
Answer: 0.8235

Question: What about the “Burkin Assay in Myotubes, α7 integrin LacZ reporter signal relative to DMSO” value ([3]; 20 uM) of the same molecule?
Answer: 0.8431

Question: What about the “Burkin Assay in Myotubes, α7 integrin LacZ reporter signal relative to DMSO” value ([3]; 40 uM) of the same molecule?
Answer: 0.7401

Question: What about the “CMV-LACZ in Myoblasts (β-galactosidase activity relative to DMSO)” value ([4]; 0.5 uM) of the same molecule?
Answer: 0.9597

Question: And the “CMV-LACZ in Myoblasts (β-galactosidase activity relative to DMSO)” value ([4]; 1 uM)?
Answer: 1.0843

Question: What about the “CMV-LACZ in Myoblasts (β-galactosidase activity relative to DMSO)” value ([4]; 5 uM) of the same molecule?
Answer: 1.1655

Question: What about the “CMV-LACZ in Myoblasts (β-galactosidase activity relative to DMSO)” value ([4]; 10 uM) of the same molecule?
Answer: 1.4266

Question: What about the “CMV-LACZ in Myoblasts (β-galactosidase activity relative to DMSO)” value ([4]; 20 uM) of the same molecule?
Answer: 0.8237

Question: And the “CMV-LACZ in Myoblasts (β-galactosidase activity relative to DMSO)” value ([4]; 40 uM)?
Answer: 1.0111
